Measured values: publication PMC5803267, “A small molecule inhibitor of Rheb selectively targets mTORC1 signaling” (Nature Communications, 2018)

Tests used:
[1] = system: T202/Y204pERK1/2 (Ras/ERK pathway) in MCF-7 cells; assay: EGF-induced T202/Y204pERK1/2 Western blot in MCF-7 cells; assay type: cell-based, human; details: MCF-7 serum-starved 16 h, compound 90 min, 100 ng mL^−1 EGF
Method: (§1) MCF-7 cells were serum-starved for 16 h and treated with compound for 90 min before cell lysis and Western blot analysis. For insulin-stimulated cells, 100 nM insulin was added 30 min before cell lysis. For EGF-stimulated cells, 100 ng mL^−1 EGF was added 10 min before cell lysis. c Rap1 activity was detected in lysates loaded in vitro with either GDP or GTPγS and treated with NR1 at the indicated concentrations. This was followed by a subsequent pulldown of GST-RalGDS-RBD. Bound Rap1 was detected by Western blot. d Evaluation of NR1 in a LAM patient-derived cell line (TRI102) under replete and serum-starved conditions. For replete conditions, TRI102 cells were treated for 90 min with compound in DMEM + 10% FBS. For serum-starved conditions, TRI102 cells were serum-starved 16 h and then treated for 90 min with compound prior to cell lysis and Western blot analysis. e HEK293 cells co-transfected with the indicated mTOR constructs and HA-GST-S6K1 were starved of amino acids or treated with NR1. To assess mTORC1 activity, an HA IP was performed and Western blots probed for ^T389pS6K1. f Chronic treatment of PC3 cells with NR1 to evaluate the inhibition of mTORC1 (using ^T389pS6K1) versus mTORC2 (using ^S473pAKT). PC3 cells were treated with compound under replete conditions for 24 h prior to cell lysis and Western blot analysis. […]

[2] = system: T389pS6K1 in HEK293 cells; assay: T389pS6K1 in HEK293 cells transfected with WT or constitutively active mTOR mutants; assay type: cell-based, human; details: HEK293, 30 µM NR1 for 90 min
Method: as §1, with “NR1.” for “NR1. To assess mTORC1 activity, an HA IP was performed and Western blots probed for ^T389pS6K1. f Chronic treatment of PC3 cells with NR1 to evaluate the inhibition of mTORC1 (using ^T389pS6K1) versus mTORC2 (using ^S473pAKT). PC3 cells were treated with compound under replete conditions for 24 h prior to cell lysis and Western blot analysis.”
To further support Rheb as the target of NR1, we assessed whether NR1 could inhibit ^T389pS6K1 in cells transfected with constitutively active, Rheb-independent double mutants of mTOR originally described by Xu et al.[48]. […]

Aqueous solubility = assay type: physicochemical; details: result in words

With `CN(C)C(=O)c1ccc(Cn2c(C(=O)O)cc3c(Br)cc(Sc4ccc(Cl)c(Cl)c4)cc32)cc1` [NR1, 4-bromo-6-(3,4-dichlorophenylthio)-1-(4-(dimethylcarbamoyl)benzyl)-1H-indole-2-carboxylic acid] the “EGF-induced phosphorylation of T202/Y204pERK1/2” value [1] was “did not inhibit”, the “T389pS6K1 phosphorylation with Rheb-independent mTOR mutants” value [2] was “no impact on pS6K1” and the “T389pS6K1 phosphorylation with vehicle or WT mTOR” value [2] was “reduces”. For the same compound, the aqueous solubility (Aqueous solubility) was “low aqueous solubility”.
